Laboratory results published in US9113650B2, “Pectic enzyme treated pectin, method of producing the same and application thereof” (NATIONAL PINGTUNG UNIVERSITY OF SCIENCE AND TECHNOLOGY, priority 2011, dated 2015).
Marks after values point to notes of the source that are not given here.

Tests used:
Format in all cases: biochemical
[1] = DPPH radical scavenging activity
Protocol: 4 mL of sample solutions (i.e. pectin solution, PET-pectin solution, BHT solution or Vit. […] And then, the light absorbance of those mixtures at 517 nm was detected by the spectrophotometer, and their DPPH radical scavenging activities (%) were calculated according to the following formula (I), in which the lower light absorbance was referred to the stronger DPPH radical scavenging activity. Each data of TABLE 4 is referred to the mean of samples in triplicate and the result is listed in the third column of TABLE 4. [formula]

[2] = Trolox equivalent antioxidant capacity (TEAC), ABTS
Protocol: The ABTS could serve as the free radical source. After the mixture reacted in the dark for 12 to 16 hours and generated stably blue-green ABTS, followed by adding 0.25 mL of various concentrations of sample solutions (i.e. pectin solution, PET-pectin solution, BHT solution or Vit. E solution listed in TABLE 2) and reacting for 10 minutes. And then, the light absorbance of those mixtures at 734 nm was detected by the spectrophotometer, and the result was listed in TABLE 4. Each data of TABLE 4 was referred to the mean of samples in at least or more than triplicate. […] E analogue; Sigma, St. Louis, Mo., U.S.A.) standard curve established by using different concentrations of trolox as a reference. The results of TEAC are shown in FIG. 2 and the fourth column of TABLE 4.

[3] = Reducing power (Prussian blue, OD700 nm)
Protocol: The reducing power of PET-pectin was determined by using the yield of Prussian blue [ferric ferrocyanide; […] In brief, three-valent […] ion (Fe^3+) of red blood salt (potassium […]; […] And then, the light absorbance of Prussian blue at 700 nm was detected to evaluate the reducing power, in which the higher light absorbance was referred to the stronger reducing power. This EXAMPLE could use the conventional method. The PET-pectin was prepared to various concentrations, each 20 μL aliquot of the sample solutions (i.e. pectin solution, PET-pectin solution, BHT solution or Vit. E solution listed in TABLE 2) was added with 50 μL of 0.2 M phosphate buffer (pH 6.6) containing 1% red blood salt [K3Fe(CN)6], incubated in water bath at 50° C. for 20 minutes and added with 50 μL of 10% trichloroacetic acid (TCA) solution. […] The absorbance at 700 nm is measured by the spectrophotometer and listed in the fifth column of TABLE 4, in which the higher light absorbance is referred to the stronger reducing power. Each data of TABLE 4 is referred to the mean of samples in at least or more than triplicate.

| Compound | DPPH radical scavenging activity(%) ([1]; concentration 0.01 mg/mL) | DPPH radical scavenging activity(%) ([1]; concentration 0.10 mg/mL) | TEAC (mM Trolox) ([2]; concentration 0.01 mg/mL) | TEAC (mM Trolox) ([2]; concentration 0.10 mg/mL) | Reducing Power (OD700 nm) ([3]; concentration 0.01 mg/mL) | Reducing Power (OD700 nm) ([3]; concentration 0.10 mg/mL) |
| --- | --- | --- | --- | --- | --- | --- |
| Cc1cc(C(C)(C)C)c(O)c(C(C)(C)C)c1 [Butylated hydroxytoluene (BHT), Butylated hydroxytoluene] | 5.2 ± 0.4^e % | 49.2 ± 2.9^c % | 0.4 ± 0.0^d mM Trolox | 1.3 ± 0.2^c mM Trolox | 0.5 ± 0.0^d OD700 nm | 1.7 ± 0.1^b OD700 nm |
| Cc1c(C)c2c(c(C)c1O)CC[C@@](C)(CCC[C@H](C)CCC[C@H](C)CCCC(C)C)O2 [α-tocopherol (Vit. E), α-tocopherol] | 46.1 ± 0.4^d % | 96.8 ± 0.5^a % | 0.5 ± 0.0^d mM Trolox | 3.5 ± 0.1^b mM Trolox | 0.6 ± 0.0^d OD700 nm | 2.5 ± 0.0^a OD700 nm |
